Reference: patent publication US20260274797A1, “PROPIONIC ACID DERIVATIVE AND USE THEREOF IN MEDICINE” (Xizang Haisco Pharmaceutical Co., Ltd., priority 2022, published 2026)
Where a name gives a salt, the structure may show the parent alone.

Assays:
integrin α4β7 = biological target: T1, integrin α4β7 (Homo sapiens, UniProt P13612+P26010); assay: Integrin α4β7 cell adhesion assay (RPMI8866 cells on MAdCAM-1); assay type: cell-based; details: RPMI8866 cells adhering to MAdCAM-1; α4β7-mediated cell adhesion; read-out: RPMI-8866 (α4β7)/MadCAM-1 IC50
T1 sequence (P13612 34-1032): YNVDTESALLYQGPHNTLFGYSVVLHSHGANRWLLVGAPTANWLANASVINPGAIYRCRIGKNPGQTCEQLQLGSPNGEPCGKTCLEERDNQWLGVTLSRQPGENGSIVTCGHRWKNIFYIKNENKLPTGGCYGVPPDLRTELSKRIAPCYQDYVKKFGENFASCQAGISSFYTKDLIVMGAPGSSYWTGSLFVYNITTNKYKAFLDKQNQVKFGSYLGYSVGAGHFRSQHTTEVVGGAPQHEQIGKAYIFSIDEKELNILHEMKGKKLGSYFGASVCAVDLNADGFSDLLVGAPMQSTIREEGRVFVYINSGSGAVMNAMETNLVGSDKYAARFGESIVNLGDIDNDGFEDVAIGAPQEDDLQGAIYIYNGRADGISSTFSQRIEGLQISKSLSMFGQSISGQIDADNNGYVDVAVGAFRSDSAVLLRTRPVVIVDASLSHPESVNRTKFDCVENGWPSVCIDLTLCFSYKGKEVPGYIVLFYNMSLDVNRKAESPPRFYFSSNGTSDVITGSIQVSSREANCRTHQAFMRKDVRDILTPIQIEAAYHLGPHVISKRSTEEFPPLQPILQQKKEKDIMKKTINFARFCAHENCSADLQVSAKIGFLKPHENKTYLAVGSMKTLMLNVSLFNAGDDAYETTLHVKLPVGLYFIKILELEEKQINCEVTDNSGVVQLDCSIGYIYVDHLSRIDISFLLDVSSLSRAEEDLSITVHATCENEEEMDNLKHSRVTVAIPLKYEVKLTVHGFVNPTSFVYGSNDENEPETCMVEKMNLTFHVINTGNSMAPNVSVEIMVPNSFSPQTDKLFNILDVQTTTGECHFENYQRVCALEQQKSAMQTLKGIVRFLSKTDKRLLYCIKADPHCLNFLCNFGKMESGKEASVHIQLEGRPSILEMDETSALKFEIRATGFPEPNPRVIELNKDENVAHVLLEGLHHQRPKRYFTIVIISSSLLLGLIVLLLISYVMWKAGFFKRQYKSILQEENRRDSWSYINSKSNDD
T1 sequence (P26010 20-798): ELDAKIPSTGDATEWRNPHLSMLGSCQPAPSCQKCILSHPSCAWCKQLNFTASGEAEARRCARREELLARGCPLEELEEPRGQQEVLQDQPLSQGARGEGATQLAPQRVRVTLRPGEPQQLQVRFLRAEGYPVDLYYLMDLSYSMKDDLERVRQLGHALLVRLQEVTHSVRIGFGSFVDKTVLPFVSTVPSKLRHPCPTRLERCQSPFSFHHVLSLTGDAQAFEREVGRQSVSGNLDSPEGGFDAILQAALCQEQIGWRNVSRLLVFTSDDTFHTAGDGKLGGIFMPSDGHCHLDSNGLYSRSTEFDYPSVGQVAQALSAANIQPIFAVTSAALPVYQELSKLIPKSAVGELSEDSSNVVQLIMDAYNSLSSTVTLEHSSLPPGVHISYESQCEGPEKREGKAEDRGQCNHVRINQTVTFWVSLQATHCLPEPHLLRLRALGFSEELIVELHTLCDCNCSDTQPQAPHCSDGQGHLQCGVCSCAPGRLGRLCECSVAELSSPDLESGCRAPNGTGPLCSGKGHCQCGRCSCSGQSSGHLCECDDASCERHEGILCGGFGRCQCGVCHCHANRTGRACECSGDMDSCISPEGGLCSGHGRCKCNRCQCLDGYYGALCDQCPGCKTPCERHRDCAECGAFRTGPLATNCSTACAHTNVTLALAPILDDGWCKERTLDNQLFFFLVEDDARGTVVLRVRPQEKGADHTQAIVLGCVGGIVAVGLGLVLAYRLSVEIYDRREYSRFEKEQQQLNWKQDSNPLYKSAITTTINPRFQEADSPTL
Description: MAdCAM-1 was formulated with TBS buffer to a final concentration of […], 50 μl of the solution was transferred to a 96-well plate, and the plate was coated with same at 4° C. overnight. The plate was washed with TBS buffer three times, then 150 μl of a blocking solution (TBS buffer containing 1% BSA) was added, and the plate was blocked at 37° C. for 1 h. […] 50 μl of the cell suspension was transferred to a 96-well plate so that the cell density reached 2×10^5 cells/well. Then 1 μl of the compound at different concentrations or DMSO was added and the plate was incubated at 37° C. for 1 h or 2 h. The plate was washed with TBS buffer to remove non-adherent cells. 50 μl of a substrate (4-nitrophenyl-N-acetyl-o-D-glucosaminide) was added and the plate was incubated at 37° C. for 2 h. […] The IC50 value was calculated using GraphPad Prism 6 software.

integrin α4β1 = biological target: T2, integrin α4β1 (Homo sapiens, UniProt P05556+P13612); assay: Integrin α4β1-mediated cell adhesion assay (Jurkat cells on VCAM); assay type: cell-based; details: for IC50: Jurkat cells adhering to VCAM-1, α4β1-mediated cell adhesion; for α4β1/α4β7: selectivity ratio, Jurkat (α4β1)/VCAM-1 IC50 over RPMI-8866 (α4β7)/MadCAM-1 IC50
T2 construct: Jurkat cells were collected, washed twice using DPBS buffer; endogenous in cells; host or cells: Jurkat cells
T2 sequence (P05556 21-798, one chain of several): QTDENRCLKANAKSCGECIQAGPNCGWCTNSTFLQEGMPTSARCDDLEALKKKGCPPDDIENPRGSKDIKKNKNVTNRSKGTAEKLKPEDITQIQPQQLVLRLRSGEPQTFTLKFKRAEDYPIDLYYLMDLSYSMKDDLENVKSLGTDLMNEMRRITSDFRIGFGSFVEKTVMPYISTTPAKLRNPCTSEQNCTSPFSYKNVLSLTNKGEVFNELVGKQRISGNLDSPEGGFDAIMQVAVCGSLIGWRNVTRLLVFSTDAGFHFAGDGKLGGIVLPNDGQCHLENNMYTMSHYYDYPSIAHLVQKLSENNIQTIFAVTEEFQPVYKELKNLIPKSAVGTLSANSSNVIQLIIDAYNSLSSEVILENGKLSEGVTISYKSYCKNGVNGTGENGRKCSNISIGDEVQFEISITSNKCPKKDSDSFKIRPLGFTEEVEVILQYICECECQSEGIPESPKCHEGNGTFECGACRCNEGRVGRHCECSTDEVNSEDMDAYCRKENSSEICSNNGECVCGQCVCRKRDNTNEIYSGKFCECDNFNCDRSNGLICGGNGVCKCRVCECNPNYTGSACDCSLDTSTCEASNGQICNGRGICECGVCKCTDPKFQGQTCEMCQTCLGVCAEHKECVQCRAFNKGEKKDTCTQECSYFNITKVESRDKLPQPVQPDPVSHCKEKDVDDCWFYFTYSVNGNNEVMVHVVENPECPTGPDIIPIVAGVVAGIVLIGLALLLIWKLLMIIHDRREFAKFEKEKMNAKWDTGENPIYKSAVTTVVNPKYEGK
Description: VCAM was formulated into a final concentration of […] with a coating buffer, 50 μl of the solution was transferred to a 96-well plate, and the plate was coated with same at 4° C. overnight. The plate was washed with coating buffer three times, then 150 μl of a blocking solution (coating buffer containing 1% BSA) was added, and the plate was blocked at 37° C. for 1 h. Jurkat cells were collected, washed twice using DPBS buffer, and then resuspended to 4×10^6 cells/ml with an action buffer. 50 μl of the cell suspension was transferred to a 96-well plate so that the cell density reached 2×10^5 cells/well. Then 1 μl of the test compound at different concentration or DMSO was added and the plate was incubated at 37° C. for 1 h. The plate was washed with coating buffer to remove non-adherent cells. 50 μl of a substrate (4-nitrophenyl-N-acetyl-β-D-glucosaminide) was added and the plate was incubated at 37° C. for 2 h.
Coating buffer: DMEM+20 mM HEPES+0.4 mM MnCl2
Action buffer: DMEM+20 mM HEPES+0.1% BSA+0.4 mM MnCl2
DMEM: dulbecco's modified eagle medium;
HEPES: 2-[4-(2-hydroxyethyl)piperazin-1-yl]ethanesulfonic acid

[1] = Pharmacokinetic test in rats; assay type: in vivo, SD rats
Description: Experimental animals: Male SD rats, about 220 g, 6-8 weeks old, 6 rats/compound, purchased from Chengdu Ddossy Experimental Animals Co., Ltd.
Experimental design: on the day of the test, 6 SD rats/compound were randomly grouped according to their body weights. The animals were fasted with water available for 12 to 14 h one day before the administration and were fed 4 h after the administration.

[2] = Test of stability in liver microsomes (rat); assay type: in vitro ADME; details: 1 μM test compound, NADPH, 37° C.
Description: (§1) In this experiment, liver microsomes of three species, including monkey, rat and mouse, were used as in vitro models to evaluate the metabolic stability of the test compound.
(§2) At 37° C., 1 μM of the test compound was co-incubated with microsomal protein and coenzyme NADPH. At given time points of the reaction (5 min, 10 min, 20 min, 30 min, and 60 min), the reaction was terminated by adding ice-cold acetonitrile containing an internal standard. The LC-MS/MS method was used to measure the concentration of the test compound in the sample. T1/2 was calculated using the natural logarithm (ln) of the residual rate of the drug in the incubation system and the incubation time. In addition, the intrinsic clearance in liver microsomes CLint(mic) and the intrinsic clearance in liver CLint(Liver) were further calculated.

[3] = Test of stability in liver microsomes (mouse); assay type: in vitro ADME; details: 1 μM test compound, NADPH, 37° C.
Description: as §1, §2

[4] = Test of stability in liver microsomes (monkey); assay type: in vitro ADME; details: 1 μM test compound, NADPH, 37° C.
Description: as §1, §2

[5] = read-out: Hepatic intrinsic clearance CLint(liver)
[6] = read-out: Hepatic microsomal intrinsic clearance CLint (mic)

Cc1cc(F)cc(C)c1-c1c(F)c(C(CC(=O)O)NC(=O)C(CC(C)C)n2cc(CCC3CCN(C)C3)c(C(F)(F)F)cc2=O)c(F)c2c1CCC2 (stereo not shown) [Trifluoroacetate salt of compound 26-2]
IC50 (integrin α4β7): < 1 nM | IC50 (integrin α4β1): > 100 nM

Cc1cc(F)cc(C)c1-c1cc(C(CC(=O)O)NC(=O)C(CC(C)C)n2cc(CCN(C)CC3CC3(F)F)c(C(F)(F)F)cc2=O)cc2c1CCC2 (single isomer, unassigned) [Compound 1-2]
IC50 (integrin α4β1): > 100 nM

Cc1cc(F)cc(C)c1-c1c(F)c(C(CC(=O)O)NC(=O)[C@H](CC(C)C)n2cc(CC3CN(C(C)C)C3)c(C(F)(F)F)cc2=O)c(F)c2c1CCC2 (stereo partly shown) [Compound 32-2]
CL ([1]; IV: 1 mg/kg): 20.2 mL/min/kg

Cc1cc(-c2c(C)cc(F)cc2C)cc([C@H](CC(=O)O)NC(=O)[C@H](CC(C)C)n2cc(CCN(C)C)c(C(F)(F)F)cc2=O)c1F [Control compound A]
half-life at 1 μM [2]: 35.7 min | CLint scaled at 1 μM [2, 5]: 69.9 mL/min/kg | microsomal CLint at 1 μM [2, 6]: 38.8 µL/min/mg | half-life at 1 μM [3]: 49.3 min | CLint scaled at 1 μM [3, 5]: 111 mL/min/kg | microsomal CLint at 1 μM [3, 6]: 28.1 µL/min/mg | half-life at 1 μM [4]: 10.6 min | CLint scaled at 1 μM [4, 5]: 176 mL/min/kg | microsomal CLint at 1 μM [4, 6]: 130 µL/min/mg | F ([1]; PO: 10 mg/kg vs iv […] (footnote, control compound A)): 23.9% | AUC ([1]; male, SD, rat, plasma, PO: 10 mg/kg (footnote, control compound A)): 900 ng·h/mL | clearance ([1]; male, SD, rat, plasma, iv 2.5 mg/kg (footnote, control compound A)): 45.8 mL/min/kg

Cc1cc(F)cc(C)c1-c1c(F)c(C(CC(=O)O)NC(=O)[C@H](CC(C)C)n2cc(CCC3CCCN3C)c(C(F)(F)F)cc2=O)c(F)c2c1CCC2 (single isomer, unassigned) [Trifluoroacetate salt of compound 28-2]
IC50 (integrin α4β1): > 100 nM

Cc1ccc2[nH]ncc2c1-c1c(F)c(C(CC(=O)O)NC(=O)[C@H](CC(C)C)n2cc(CCN(C)C)c(C(F)(F)F)cc2=O)c(F)c2c1CCC2 (stereo partly shown) [Compound 33-2]
IC50 (integrin α4β7): < 0.5 nM | IC50 (integrin α4β1): > 100 nM | α4β1/α4β7 (integrin α4β1): 643

Cc1cc(F)cc(C)c1-c1cc(C(CC(=O)O)NC(=O)C(CC(C)C)n2cc(CC3CCN(C(C)C)CC3)c(C(F)(F)F)cc2=O)cc2c1CCC2 (stereo not shown) [Trifluoroacetate salt of compound 22-2]
IC50 (integrin α4β7): < 0.5 nM | IC50 (integrin α4β1): > 100 nM

COc1cc(C)c(-c2c(F)c(C(CC(=O)O)NC(=O)C(CC(C)C)n3cc(CCN(C)C)c(C(F)(F)F)cc3=O)c(F)c3c2CCC3)c(C)c1 (single isomer, unassigned) [Trifluoroacetate salt of compound 21-2]
IC50 (integrin α4β7): < 1 nM | IC50 (integrin α4β1): > 500 nM

[2H]C([2H])([2H])Oc1cc(C)c(-c2c(F)c([C@H](CC(=O)O)NC(=O)C(CC(C)C)n3cc(CCN4CCC4)c(C(F)(F)F)cc3=O)c(F)c3c2CCC3)c(C)c1 (stereo partly shown) [Compound 40-2]
IC50 (integrin α4β7): < 0.5 nM | IC50 (integrin α4β1): > 300 nM | α4β1/α4β7 (integrin α4β1): 1143

COc1cc(C)c(-c2c(F)c(C(CC(=O)O)NC(=O)C(CC(C)C)n3cc(CCN(C)C)c(C(F)(F)F)cc3=O)c(F)c3c2CCC3)c(C)c1 (stereo not shown) [Compound 21-A]
IC50 (integrin α4β1): > 100 nM
